# Laboratory results from patent US10456553B2, “Device and methods for targeted tissue drug delivery” (NATIVE CARDIO, INC., priority 2012, dated 2019).
# Columns and labels:
# [1] = tested on: ventricular electrophysiology; test: Ventricular electrophysiology, heart rate and systemic blood pressure after pericardial or intravenous procainamide; format: in vivo; conditions: swine
# Description: (§1) Studies were conducted to determine the differences between intrapericardial (IPC) drug delivery versus intravenous (IV) drug delivery of the antiarrhythmic drug procainamide. In one study, using two groups of swine, investigators administered procainamide intravenously (n=6) or […] (n=7) using sequential intravenous doses of 2, 8, 16 mg/kg (cumulative was 2, 10, 26 mg/kg) or sequential pericardial doses of 0.5, 1, and 2 mg/kg (cumulative was 0.5, 1.5, 3.5 mg/kg). Each dose was re-suspended in 10 ml and administered at a rate of 1 mL/min. The pharmacokinetics of the two drug delivery methods was statistically significant. Pericardial delivery produced peak drug concentrations within the range of 250 to 900 ug/ml while the measurable level for plasma concentration was low (<1 ug/mL). […] It should be noted that the pericardial fluid concentration during intravenous delivery was 100 times less than that of intrapericardial delivery. The atrial electrophysiologic values were similar between both sets of delivery methods, indicating a lower direct dose can achieve similar therapeutic responses. The 3.5 mg/kg cumulative pericardial dose increased right atrial ERP by 22% from the baseline, while the 10 and 26 mg/kg cumulative intravenous doses prolonged atrial ERP by 24% and 18%, respectively. In addition, the cumulative doses of 3.5 mg/kg (pericardial) and 26 mg/kg (intravenous) prevented atrial fibrillation induction in 71% and 83% of the animals, respectively.
# [2] = tested on: atria; test: Atrial electrophysiology (right atrial ERP) and atrial fibrillation induction after pericardial or intravenous procainamide; format: in vivo; conditions: swine
# Description: as §1
# [3] = design: species or system swine; conditions: in vivo
# Description: as §1, with “In addition, the cumulative doses of 3.5 mg/kg (pericardial) and 26 mg/kg (intravenous) prevented atrial fibrillation induction in 71% and 83% of the animals, respectively.” left out
smiles,measurement,setting,value
CCN(CC)CCNC(=O)c1ccc(N)cc1 [procainamide],atrial ventricular conduction times,[1]; 26 mg/kg intravenous dose,prolonged
same,interventricular conduction (RV and LV activation),[1]; 26 mg/kg intravenous dose,reduced
same,"effects on ventricular electrophysiology, heart rate, or systemic blood pressure",[1]; pericardial delivery,no significant effects
same,animals in which atrial fibrillation induction was prevented,"[2]; 3.5 mg/kg cumulative dose, pericardial",71%
same,increase of right atrial ERP from the baseline,[2]; 3.5 mg/kg cumulative pericardial dose,22%
same,prolongation of atrial ERP,[2]; 10 mg/kg cumulative intravenous dose,24%
same,animals in which atrial fibrillation induction was prevented,"[2]; 26 mg/kg cumulative dose, intravenous",83%
same,prolongation of atrial ERP,[2]; 26 mg/kg cumulative intravenous dose,18%
same,concentrations within the pericardial fluid,[3]; iv,equal to that of the plasma concentration
same,pericardial fluid concentration during intravenous delivery relative to intrapericardial delivery,[3]; swine,100 times less
